Experimental data taken from article PMC9403976, “Elucidating the path to Plasmodium prolyl-tRNA synthetase inhibitors that overcome halofuginone resistance” (Nature Communications, 2022).
“And” between values parts separate entries of the source, which are not always exact repeats. Equal values may be shown once. Read-outs that look alike come from different tables or passages of the source.

Columns and labels:
P. falciparum Dd2-2D4 = assay: P. falciparum asexual blood stage (ABS) growth assay, SYBR Green, 72 h, wild-type parasites; format: cell-based, Plasmodium falciparum; conditions: for parasite growth, replicate wells (Fig 1b): Dd2-2D4
[1] = system: P. falciparum Dd2-2D4 NCP26 selections S1-3; assay: ABS growth assay on bulk populations and clones from NCP26 resistance selections S1-3; format: cell-based, Plasmodium falciparum; conditions: for EC50: Plasmodium falciparum; for Fold-change Resistance: independent experiments
Description: In short, P. falciparum erythrocytic-stage parasites at 1% parasitemia and 1% hematocrit in RPMI + 0.5% Albumax were seeded at 40 μL/well in 384-well plates with test compounds in triplicate, dose-response format with 10 μM dihydroartemisinin as a kill-control and blank (no compound) wells as a growth-control. […] After 72 h, growth was quantified by measuring fluorescence (Molecular Devices SpectraMax iD5) following SYBR Green 1 staining. Data were analyzed in Excel and plotted in PRISM (V. 8.4.3–9.1.0, GraphPad).
This cycle was repeated for ~50 generations (~100 days), corresponding to 5–6 cycles of drug pressure.
Clonal parasites were isolated from each selection flask by limiting dilution of ring stage parasites in 96-well plates to an average of 0.8 and 0.2 parasites per well.

HsProRS = HsProRS (Homo sapiens, UniProt P07814); assay: TR-FRET ligand displacement assay with tracer MAT379 (CoraFluor-1-Halo and anti-His6 antibody formats); format: binding; design: made in house; host or cells: E. coli SoluBL-21; conditions: for TR-FRET dose-response, normalized signal (SI Fig 11): individual replicates
HsProRS, sequence (P07814 996-1512): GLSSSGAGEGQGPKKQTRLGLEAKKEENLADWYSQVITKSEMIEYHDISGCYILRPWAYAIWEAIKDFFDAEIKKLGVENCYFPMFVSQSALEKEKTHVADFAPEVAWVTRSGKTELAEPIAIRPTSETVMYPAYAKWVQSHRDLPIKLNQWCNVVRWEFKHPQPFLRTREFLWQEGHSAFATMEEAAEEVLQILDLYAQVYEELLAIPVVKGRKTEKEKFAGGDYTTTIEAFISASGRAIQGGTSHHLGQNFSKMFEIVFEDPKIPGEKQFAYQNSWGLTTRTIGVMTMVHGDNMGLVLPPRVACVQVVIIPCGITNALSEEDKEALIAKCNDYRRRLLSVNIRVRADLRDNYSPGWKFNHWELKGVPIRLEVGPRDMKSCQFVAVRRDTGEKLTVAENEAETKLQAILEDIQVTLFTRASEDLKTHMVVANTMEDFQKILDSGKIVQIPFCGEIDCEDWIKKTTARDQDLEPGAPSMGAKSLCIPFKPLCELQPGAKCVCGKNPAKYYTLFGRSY

[2] = Log[inhibitor] (M) -5.000, listed as Halofuginone (1)

## O=C(CC1NCCCC1O)Cn1cnc2cc(Br)c(Cl)cc2c1=O (centres unmarked) [Halofuginone]
P. falciparum Dd2-2D4; Log[inhibitor] (M) -7.000
  parasite growth, replicate wells (Fig 1b): 1.00E+00
P. falciparum Dd2-2D4; Log[inhibitor] (M) -7.301
  parasite growth, replicate wells (Fig 1b): 1.00E+00
P. falciparum Dd2-2D4; Log[inhibitor] (M) -7.602, listed as Halofuginone (1)
  parasite growth, replicate wells (Fig 1b): 0.00E+00 (2×) and 1.00E+00
P. falciparum Dd2-2D4; Log[inhibitor] (M) -7.903, listed as Halofuginone (1)
  parasite growth, replicate wells (Fig 1b): 2.00E+00 (2×) and 0.00E+00
P. falciparum Dd2-2D4; Log[inhibitor] (M) -8.204, listed as Halofuginone (1)
  parasite growth, replicate wells (Fig 1b): 1.00E+00 (2×) and 0.00E+00
P. falciparum Dd2-2D4; Log[inhibitor] (M) -8.505
  parasite growth, replicate wells (Fig 1b): 0.00E+00
P. falciparum Dd2-2D4; Log[inhibitor] (M) -8.806, listed as Halofuginone (1)
  parasite growth, replicate wells (Fig 1b): 0.00E+00 (2×) and -1.00E+00
P. falciparum Dd2-2D4; Log[inhibitor] (M) -9.107, listed as Halofuginone (1)
  parasite growth, replicate wells (Fig 1b): 5.00E+00 (2×) and 4.00E+00
P. falciparum Dd2-2D4; Log[inhibitor] (M) -9.408, listed as Halofuginone (1)
  parasite growth, replicate wells (Fig 1b): 9.10E+01 and 8.70E+01 and 8.90E+01
P. falciparum Dd2-2D4; Log[inhibitor] (M) -9.709, listed as Halofuginone (1)
  parasite growth, replicate wells (Fig 1b): 1.04E+02 and 1.07E+02 (2×)
P. falciparum Dd2-2D4; Log[inhibitor] (M) -10.010, listed as Halofuginone (1)
  parasite growth, replicate wells (Fig 1b): 1.06E+02 and 1.04E+02 (2×)
P. falciparum Dd2-2D4; Log[inhibitor] (M) -10.311, listed as Halofuginone (1)
  parasite growth, replicate wells (Fig 1b): 9.80E+01 and 9.90E+01 and 9.70E+01
P. falciparum Dd2-2D4; Plasmodium falciparum, DD2, SI Fig 16b, values on -log scale, read-out: ABS - Dd2-2D4 (converted)
  EC50: 0.519 nM
[1]; DD2, cell line S1 - Clone A8, read-out: EC50 [nM] mean
  EC50: 0.641 nM
[1]; DD2, cell line S1 - bulk population, read-out: EC50 [nM] mean
  EC50: 0.951 nM
[1]; DD2, cell line S2 - Clone A3, read-out: EC50 [nM] mean
  EC50: 0.36 nM
[1]; DD2, cell line S2 - Clone B9, read-out: EC50 [nM] mean
  EC50: 0.694 nM
[1]; DD2, cell line S2 - Clone C5, read-out: EC50 [nM] mean
  EC50: 0.439 nM
[1]; DD2, cell line S2 - bulk population, read-out: EC50 [nM] mean
  EC50: 0.432 nM
[1]; DD2, cell line S3 - Clone B3, read-out: EC50 [nM] mean
  EC50: 2.51 nM
[1]; DD2, cell line S3 - Clone B7, read-out: EC50 [nM] mean
  EC50: 2.01 nM
[1]; DD2, cell line S3 - bulk population, read-out: EC50 [nM] mean
  EC50: 2.56 nM
[1]; DD2, read-out: EC50 [nM] mean, cell line S3 - Clone B2
  EC50: 2.75 nM
[1]; S1 - Clone A8
  Fold-change Resistance: 0.97 and 0.75 and 1.48
[1]; S2 - Clone B9
  Fold-change Resistance: 0.89 and 1.08
[1]; S2 - Clone C5
  Fold-change Resistance: 0.56 and 0.68
[1]; S3 - Clone B2
  Fold-change Resistance: 3.65 and 3.48
[1]; S3 - Clone B3
  Fold-change Resistance: 3.93 and 2.72 and 3.23
[1]; S3 - Clone B7
  Fold-change Resistance: 2.66 and 3.07 and 3.15
HsProRS; Halofuginone series, Log[inhibitor] (M) -5.301
  normalized TR-FRET signal (Fig 2j): 4.67E-01 and 4.34E-01 and 5.01E-01
HsProRS; Halofuginone series, Log[inhibitor] (M) -5.602
  normalized TR-FRET signal (Fig 2j): 6.44E-01 and 5.92E-01 and 5.65E-01
HsProRS; Halofuginone series, Log[inhibitor] (M) -7.107
  normalized TR-FRET signal (Fig 2j): 1.11E+00 and 9.45E-01 and 9.98E-01
HsProRS; HsProRS - best Kd, SI Fig 16a, values on -log scale
  Kd: 0.225 nM
HsProRS; [2]
  TR-FRET dose-response, normalized signal (SI Fig 11): 1.22E-01 and 1.04E-01 and 9.99E-02
  normalized TR-FRET ligand displacement signal, dose-response replicates (SI Fig 6): 8.67E-01 and 9.21E-01 and 8.89E-01
HsProRS; Log[inhibitor] (M) -5.258, listed as Halofuginone (1)
  normalized TR-FRET ligand displacement signal, dose-response replicates (SI Fig 6): 9.18E-01 and 9.29E-01 and 9.59E-01
HsProRS; Log[inhibitor] (M) -5.301, listed as Halofuginone (1)
  TR-FRET dose-response, normalized signal (SI Fig 11): 2.23E-01 and 2.19E-01 and 2.35E-01
HsProRS; Log[inhibitor] (M) -5.517, listed as Halofuginone (1)
  normalized TR-FRET ligand displacement signal, dose-response replicates (SI Fig 6): 9.53E-01 and 1.02E+00 (2×)
HsProRS; Log[inhibitor] (M) -5.602, listed as Halofuginone (1)
  TR-FRET dose-response, normalized signal (SI Fig 11): 3.79E-01 and 3.48E-01 and 2.87E-01
HsProRS; Log[inhibitor] (M) -5.775, listed as Halofuginone (1)
  normalized TR-FRET ligand displacement signal, dose-response replicates (SI Fig 6): 1.06E+00 and 1.00E+00 and 1.07E+00
HsProRS; Log[inhibitor] (M) -5.903
  normalized TR-FRET signal (Fig 2j): 7.44E-01 and 8.56E-01 and 7.84E-01
HsProRS; Log[inhibitor] (M) -5.903, listed as Halofuginone (1)
  TR-FRET dose-response, normalized signal (SI Fig 11): 5.30E-01 and 5.36E-01 and 5.41E-01
HsProRS; Log[inhibitor] (M) -6.018, listed as Halofuginone (1)
  normalized TR-FRET ligand displacement signal, dose-response replicates (SI Fig 6): 1.05E+00 and 1.10E+00 and 1.02E+00
HsProRS; Log[inhibitor] (M) -6.204
  normalized TR-FRET signal (Fig 2j): 8.25E-01 and 9.54E-01 and 7.75E-01
HsProRS; Log[inhibitor] (M) -6.204, listed as Halofuginone (1)
  TR-FRET dose-response, normalized signal (SI Fig 11): 7.34E-01 and 7.40E-01 and 6.73E-01
HsProRS; Log[inhibitor] (M) -6.281, listed as Halofuginone (1)
  normalized TR-FRET ligand displacement signal, dose-response replicates (SI Fig 6): 1.08E+00 and 1.03E+00 and 1.07E+00
HsProRS; Log[inhibitor] (M) -6.505
  normalized TR-FRET signal (Fig 2j): 1.04E+00 and 9.85E-01 and 1.03E+00
  TR-FRET dose-response, normalized signal (SI Fig 11): 7.32E-01
HsProRS; Log[inhibitor] (M) -6.505, listed as Halofuginone (1)
  TR-FRET dose-response, normalized signal (SI Fig 11): 7.86E-01 and 7.92E-01
HsProRS; Log[inhibitor] (M) -6.535, listed as Halofuginone (1)
  normalized TR-FRET ligand displacement signal, dose-response replicates (SI Fig 6): 1.04E+00 and 1.03E+00 and 9.64E-01
HsProRS; Log[inhibitor] (M) -6.796, listed as Halofuginone (1)
  normalized TR-FRET ligand displacement signal, dose-response replicates (SI Fig 6): 1.04E+00 and 1.03E+00 (2×)
HsProRS; Log[inhibitor] (M) -6.806
  normalized TR-FRET signal (Fig 2j): 9.63E-01 and 9.86E-01 and 9.32E-01
HsProRS; Log[inhibitor] (M) -6.806, listed as Halofuginone (1)
  TR-FRET dose-response, normalized signal (SI Fig 11): 8.94E-01 and 8.80E-01 and 8.52E-01
HsProRS; Log[inhibitor] (M) -7.056, listed as Halofuginone (1)
  normalized TR-FRET ligand displacement signal, dose-response replicates (SI Fig 6): 1.05E+00 and 1.11E+00 and 1.07E+00
HsProRS; Log[inhibitor] (M) -7.107, listed as Halofuginone (1)
  TR-FRET dose-response, normalized signal (SI Fig 11): 9.88E-01 and 8.65E-01 and 9.16E-01
HsProRS; Log[inhibitor] (M) -7.319, listed as Halofuginone (1)
  normalized TR-FRET ligand displacement signal, dose-response replicates (SI Fig 6): 1.04E+00 (2×) and 1.02E+00
HsProRS; Log[inhibitor] (M) -7.408
  normalized TR-FRET signal (Fig 2j): 1.05E+00 and 9.28E-01 and 8.93E-01
HsProRS; Log[inhibitor] (M) -7.408, listed as Halofuginone (1)
  TR-FRET dose-response, normalized signal (SI Fig 11): 9.10E-01 and 9.40E-01 and 9.15E-01
HsProRS; Log[inhibitor] (M) -7.553
  normalized TR-FRET ligand displacement signal, dose-response replicates (SI Fig 6): 1.10E+00
HsProRS; Log[inhibitor] (M) -7.553, listed as Halofuginone (1)
  normalized TR-FRET ligand displacement signal, dose-response replicates (SI Fig 6): 1.16E+00
HsProRS; Log[inhibitor] (M) -7.709
  normalized TR-FRET signal (Fig 2j): 9.59E-01 and 9.28E-01 and 9.82E-01
HsProRS; Log[inhibitor] (M) -7.709, listed as Halofuginone (1)
  TR-FRET dose-response, normalized signal (SI Fig 11): 9.34E-01 (2×) and 9.38E-01
HsProRS; Log[inhibitor] (M) -7.796, listed as Halofuginone (1)
  normalized TR-FRET ligand displacement signal, dose-response replicates (SI Fig 6): 1.10E+00 and 1.04E+00 and 1.03E+00
HsProRS; Log[inhibitor] (M) -8.010
  normalized TR-FRET signal (Fig 2j): 9.03E-01 and 1.00E+00 and 9.95E-01
HsProRS; Log[inhibitor] (M) -8.010, listed as Halofuginone (1)
  TR-FRET dose-response, normalized signal (SI Fig 11): 9.18E-01 and 9.71E-01 and 9.55E-01
HsProRS; Log[inhibitor] (M) -8.097, listed as Halofuginone (1)
  normalized TR-FRET ligand displacement signal, dose-response replicates (SI Fig 6): 1.01E+00 and 1.03E+00 and 1.08E+00
HsProRS; Log[inhibitor] (M) -8.311
  normalized TR-FRET signal (Fig 2j): 9.63E-01 and 1.06E+00 and 1.04E+00
HsProRS; Log[inhibitor] (M) -8.311, listed as Halofuginone (1)
  TR-FRET dose-response, normalized signal (SI Fig 11): 9.28E-01 and 9.37E-01 and 9.39E-01
